Data: ChEMBL document CHEMBL1150524, “Two novel, potent and selective histamine H3 receptor agonists” (Bioorg Med Chem Lett, 1992)
Activity calls are given as the source filed them. The rule behind the calls is not given here.

Experiments:
Format in all cases: functional, tissue-based
[1] = target: Histamine H1 receptor (Cavia porcellus) (UniProt P31389); experiment: Effect on histamine H1 receptor of the guinea-pig ileum, at 10e-5 M concentration; not significant
[2] = target: Histamine H3 receptor (Cavia porcellus, UniProt Q9JI35); experiment: Histamine H3 receptor agonist activity was assessed by the inhibition of the electrically evoked twitch response of the guinea-pig ileum.
Histamine H3 receptor, sequence (Q9JI35 whole entry): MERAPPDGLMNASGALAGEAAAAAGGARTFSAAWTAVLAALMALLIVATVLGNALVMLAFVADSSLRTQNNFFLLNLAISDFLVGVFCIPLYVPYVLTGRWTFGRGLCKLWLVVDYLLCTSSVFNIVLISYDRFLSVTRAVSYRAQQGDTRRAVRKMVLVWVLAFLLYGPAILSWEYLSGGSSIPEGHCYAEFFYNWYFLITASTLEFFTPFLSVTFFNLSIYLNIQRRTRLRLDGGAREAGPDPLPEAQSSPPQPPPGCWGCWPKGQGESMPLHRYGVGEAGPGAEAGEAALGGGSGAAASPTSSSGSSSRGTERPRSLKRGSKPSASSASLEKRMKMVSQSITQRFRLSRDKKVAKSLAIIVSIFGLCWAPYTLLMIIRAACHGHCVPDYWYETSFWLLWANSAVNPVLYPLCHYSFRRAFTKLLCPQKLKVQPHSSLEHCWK

[3] = target: Histamine H2 receptor (Cavia porcellus) (UniProt P47747); experiment: Effect on histamine H2 receptor of the guinea-pig atrium, at 10e-5 M concentration; not significant; conditions: Cardiac atrium
Histamine H2 receptor (Cavia porcellus), sequence (P47747 whole entry): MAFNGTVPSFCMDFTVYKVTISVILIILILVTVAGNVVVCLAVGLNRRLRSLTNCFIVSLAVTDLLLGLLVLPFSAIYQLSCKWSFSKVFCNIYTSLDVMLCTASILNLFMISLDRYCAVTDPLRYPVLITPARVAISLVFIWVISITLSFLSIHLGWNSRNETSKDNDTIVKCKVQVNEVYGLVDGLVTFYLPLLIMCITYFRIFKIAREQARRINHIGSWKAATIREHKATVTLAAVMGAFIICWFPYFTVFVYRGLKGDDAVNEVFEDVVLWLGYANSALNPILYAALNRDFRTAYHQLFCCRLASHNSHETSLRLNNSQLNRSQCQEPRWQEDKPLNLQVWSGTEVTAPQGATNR

Histamine H1 receptor (Cavia porcellus), sequence (P31389 whole entry): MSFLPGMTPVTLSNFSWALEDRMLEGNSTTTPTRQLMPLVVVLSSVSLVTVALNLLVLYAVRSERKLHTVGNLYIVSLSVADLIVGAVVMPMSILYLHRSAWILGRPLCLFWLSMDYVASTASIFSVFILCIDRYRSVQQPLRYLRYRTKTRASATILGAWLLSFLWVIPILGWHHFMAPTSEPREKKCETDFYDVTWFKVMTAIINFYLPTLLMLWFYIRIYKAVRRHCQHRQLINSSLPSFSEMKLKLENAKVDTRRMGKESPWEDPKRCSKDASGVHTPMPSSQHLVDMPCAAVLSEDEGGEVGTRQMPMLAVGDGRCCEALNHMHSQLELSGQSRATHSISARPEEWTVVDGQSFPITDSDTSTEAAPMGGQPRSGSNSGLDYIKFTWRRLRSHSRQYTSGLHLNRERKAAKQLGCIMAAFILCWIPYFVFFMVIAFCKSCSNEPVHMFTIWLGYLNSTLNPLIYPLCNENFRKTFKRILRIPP

| Activity [1] | IC50 [2] [nM] | Activity [3] | SMILES |
| --- | --- | --- | --- |
| inactive | 1.1 | inactive | N=C(N)CCCc1c[nH]cn1 |
| inactive |  | inactive | N=C(N)SCCc1c[nH]cn1 |
|  | 4.6 |  | N=C(N)SCCc1cnc[nH]1 [IMETIT] |
